6 molecules from patent publication US20260138961A1, “MODULATORS OF MITOCHONDRIAL DNA REPLICATION” (Pretzel Therapeutics, Inc., priority 2022, published 2026) can be followed below.

Some results are limits rather than exact numbers.

The target of this assay is T1, POLγ W748S + E1143G (Homo sapiens, UniProt P54098, E1143G/W748S).
T1 sequence (P54098 1-1239 W748S/E1143G): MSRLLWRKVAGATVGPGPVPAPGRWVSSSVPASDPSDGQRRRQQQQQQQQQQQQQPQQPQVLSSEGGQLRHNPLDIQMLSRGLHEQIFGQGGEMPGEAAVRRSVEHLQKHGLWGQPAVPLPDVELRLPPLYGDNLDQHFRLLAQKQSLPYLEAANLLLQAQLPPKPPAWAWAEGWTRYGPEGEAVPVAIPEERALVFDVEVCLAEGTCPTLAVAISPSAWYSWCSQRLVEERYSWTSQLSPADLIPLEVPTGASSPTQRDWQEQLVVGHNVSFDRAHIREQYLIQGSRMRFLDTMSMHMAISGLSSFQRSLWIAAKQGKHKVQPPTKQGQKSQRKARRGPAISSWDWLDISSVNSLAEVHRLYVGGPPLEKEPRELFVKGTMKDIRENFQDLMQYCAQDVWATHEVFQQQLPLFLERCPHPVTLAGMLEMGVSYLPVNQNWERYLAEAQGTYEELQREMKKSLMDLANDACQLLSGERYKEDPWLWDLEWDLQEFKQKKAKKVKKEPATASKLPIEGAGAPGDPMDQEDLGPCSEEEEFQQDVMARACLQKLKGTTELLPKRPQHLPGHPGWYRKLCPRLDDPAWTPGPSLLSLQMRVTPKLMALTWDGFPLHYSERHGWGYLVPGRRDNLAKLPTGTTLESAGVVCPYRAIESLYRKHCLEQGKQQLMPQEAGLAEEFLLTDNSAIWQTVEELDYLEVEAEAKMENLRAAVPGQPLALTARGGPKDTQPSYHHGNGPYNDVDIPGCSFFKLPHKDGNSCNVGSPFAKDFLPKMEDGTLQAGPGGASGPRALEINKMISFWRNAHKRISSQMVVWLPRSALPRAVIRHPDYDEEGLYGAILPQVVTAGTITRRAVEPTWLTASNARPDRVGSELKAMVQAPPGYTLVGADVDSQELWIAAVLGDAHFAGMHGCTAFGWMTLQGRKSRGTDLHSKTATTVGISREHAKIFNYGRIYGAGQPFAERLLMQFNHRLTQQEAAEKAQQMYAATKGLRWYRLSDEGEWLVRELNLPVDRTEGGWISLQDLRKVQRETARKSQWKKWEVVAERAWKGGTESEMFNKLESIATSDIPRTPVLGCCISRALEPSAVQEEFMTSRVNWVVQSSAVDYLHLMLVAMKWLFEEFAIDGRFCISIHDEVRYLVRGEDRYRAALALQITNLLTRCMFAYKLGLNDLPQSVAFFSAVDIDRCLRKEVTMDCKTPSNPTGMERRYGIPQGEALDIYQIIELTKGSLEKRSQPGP
T1 sequence (Q9UHN1 1-485 partner): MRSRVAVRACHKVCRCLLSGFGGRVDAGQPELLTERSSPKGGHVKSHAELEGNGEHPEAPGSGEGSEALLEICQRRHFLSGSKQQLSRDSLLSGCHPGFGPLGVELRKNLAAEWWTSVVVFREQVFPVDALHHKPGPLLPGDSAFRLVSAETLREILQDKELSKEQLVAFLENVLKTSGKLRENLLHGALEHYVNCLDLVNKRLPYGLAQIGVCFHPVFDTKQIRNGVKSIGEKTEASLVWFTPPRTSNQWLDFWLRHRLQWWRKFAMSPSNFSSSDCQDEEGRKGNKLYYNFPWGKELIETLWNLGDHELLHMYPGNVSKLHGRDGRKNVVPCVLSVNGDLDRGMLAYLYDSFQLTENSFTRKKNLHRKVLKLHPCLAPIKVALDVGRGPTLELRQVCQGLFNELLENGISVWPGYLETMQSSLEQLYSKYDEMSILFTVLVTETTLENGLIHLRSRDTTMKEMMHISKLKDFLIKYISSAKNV
Briefly: DNA polymerization assay, W748S + E1143G mutant. It counts as biochemical. Particulars: stimulation of polymerase activity, primed M13mp18 ssDNA, 37° C. 2 hours.
As to `Cc1cc(S(=O)(=O)Nc2cccc(-c3ncc(CO)s3)c2)c(C)cc1Cl` [Example 89, 4-chloro-N-(3-(5-(hydroxymethyl)thiazol-2-yl)phenyl)-2,5-dimethylbenzenesulfonamide], the AC50 is 800 nM.

With `Cc1cc(S(=O)(=O)Nc2csc(-c3ccccc3)n2)c(C)cc1Cl` [Example 81, 4-chloro-2,5-dimethyl-N-(2-phenylthiazol-4-yl)benzenesulfonamide], the AC50 amounted to 700 nM.

As to `Cc1csc(-c2ccccc2NS(=O)(=O)c2cc(C)c(Cl)cc2C)n1` [Example 80, 4-chloro-2,5-dimethyl-N-(2-(4-methylthiazol-2-yl)phenyl)benzenesulfonamide], the AC50 was above 100000 nM. Under `Cc1cc(S(=O)(=O)Nc2cccc(-c3ncc(CN(C)C)s3)c2)c(C)cc1Cl` [Example 87, 4-chloro-N-(3-(5-((dimethylamino)methyl)thiazol-2-yl)phenyl)-2,5-dimethylbenzenesulfonamide] stands 5000 nM; under `Cc1cc(S(=O)(=O)Nc2cccc(-c3ncc(C4CC4)s3)c2)c(C)cc1Cl` [Example 76, 4-chloro-N-(3-(5-cyclopropylthiazol-2-yl)phenyl)-2,5-dimethylbenzenesulfonamide], 6000 nM; under `Cc1cc(S(=O)(=O)Nc2csc(-c3ccnn3C)n2)c(C)cc1Cl` [Example 182, 4-chloro-2,5-dimethyl-N-(2-(1-methyl-1H-pyrazol-5-yl)thiazol-4-yl)benzenesulfonamide], 1000 nM.

Broadly, the AC50 is the midpoint of the concentration-response curve, whichever way the signal moves.
